Results as given in patent US9119877B2, “Therapeutic combination comprising a Cdc7 inhibitor and an anti-neoplastic agent” (NERVIANO MEDICAL SCIENCES S.R.L., priority 2010, dated 2015).
Like-named read-outs stand apart in the source and are kept apart here.

Experiments:
[1] = tested on: MX-1 human breast carcinoma; assay: tumor growth delay, MX-1 xenograft, combination with docetaxel; type: in vivo; conditions: MX-1 in CD1 Nu/Nu female mice, time to reach 1 g
Protocol: (§1) CD1 Nu/Nu female mice were obtained from Charles River, Italy, The animals were maintained in cages using steam autoclaved (sterile) bedding, sterilized diet and water were offered ad libitum. MX-1 human breast carcinoma (from American Type Culture Collection) was maintained by subcutaneous (SC) transplantation in athymic mice. Viable MX-1 tumor fragments (weighting 20-30 mg) were obtained aseptically from stock tumors and transplanted subcutaneously by trocar implantation into the left flank of athymic nude mice. Animals were examined regularly for the appearance of tumors.
(§2) Docetaxel was administered by intravenous route at the dose of 5 mg/kg on days 1, 8, 15. […] Tumor growth and body weight were measured every 3 days, Tumor growth was assessed by caliper. The two diameters were recorded and the tumor weight was calculated according to the following formula: length (mm)×width^2/2. The effect of the antitumor treatment was evaluated as the delay in the onset of an exponential growth of the tumor (see for references Anticancer drugs 7:437-60, 1996). This delay (T-C value) was defined as the difference of time (in days) required for the treatment group (T) and the control group (C) tumors to reach a predetermined size (1 g). Toxicity was evaluated on the basis of body weight reduction.

[2] = tested on: Mcf-7 human breast adenocarcinoma cell line; assay: cell proliferation (CellTiterGlo), single agents and combinations, Mcf-7; type: cell-based
Protocol: (§3) Materials and methods. […] Drugs were added to the experimental culture, and incubations were carried out at 37° C. for 72 hours in the dark. […] Drug solutions were prepared immediately before use. At the end of treatment, cell proliferation was determined by an intracellular adenosine triphosphate monitoring system (CellTiterGlo-Promega) using an Envision (PerkinElmer) reader. Inhibitory activity was evaluated comparing treated versus control data using the Assay Explorer (MDL) program. The dose inhibiting 50% of cell growth was calculated using sigmoidal interpolation curve.

[3] = tested on: MX-1 human breast carcinoma; assay: tumor growth delay, MX-1 xenograft, combination with bevacizumab; type: in vivo; conditions: MX-1 in CD-1 Nu/Nu female mice, time to reach 1 g
Protocol: (§4) Animals were examined regularly for the appearance of tumors. The treatment started when tumors were palpable. Compound of formula (I) was administered by oral route in a volume of 10 ml/kg at the daily dose of 20 mg/kg on days 2, 4, 6, 8, 10 and 12. Bevacizumab was administered by intravenous route at the dose of 20 mg/kg on days 1, 5, 9 and 13. When combined, compound of formula (I) was administered on days 2, 4, 6, 8, 10 and 12 and bevacizumab on days 1, 5, 9 and 13. […] Tumor growth was assessed by caliper.

[4] = female, CD1 Nu/Nu, mouse, in vivo
Protocol: as §1, §2

[5] = tested on: L-363 human Multiple Myeloma cell line; assay: cell proliferation (CellTiterGlo), single agents and combinations, L-363; type: cell-based
Protocol: (§5) Materials and methods. Exponentially growing human breast cancer (Mcf-7), human ovarian cancer (A-2780), human multiple myeloma (L-363), human colorectal cancer (HCT-116) and human melanoma (A-375) cell lines were seeded and incubated at 37° C. in a humidified 5% CO2 atmosphere. Drugs were added to the experimental culture, and incubations were carried out at 37° C. for 72 hours in the dark. Scalar doses of the compound of formula (I) and antineoplastic agents were added to the medium starting from 24 hours after seeding. Drug solutions were prepared immediately before use. At the end of treatment, cell proliferation was determined by an intracellular adenosine triphosphate monitoring system (CellTiterGlo-Promega) using an Envision (PerkinElmer) reader. Inhibitory activity was evaluated comparing treated versus control data using the Assay Explorer (MDL) program. The dose inhibiting 50% of cell growth was calculated using sigmoidal interpolation curve. Combination indices (C.I.) were calculated using a proprietary computer program for multiple drug effect analysis based on the equation of Chou-Talalay (Adv Enzyme Regul 1984;22:27-55) for mutually nonexclusive drugs, where a C.I. of <1 indicates a more than additive effect: C.I.: >3 strong antagonism; 1.3-3 antagonism; 1.2-0.8 additivity; 0.8-0.3 synergism; <0.3 strong synergism.

[6] = tested on: HCT116 human colon carcinoma cell line; assay: cell proliferation (CellTiterGlo), single agents and combinations, HCT116; type: cell-based
Protocol: as §3

[7] = toxicity on the basis of body weight reduction, MX-1 study with bevacizumab; type: in vivo
Protocol: as §4

[8] = tested on: A375 human melanoma cell line; assay: cell proliferation (CellTiterGlo), single agents and combinations, A375; type: cell-based; conditions: A-375, 72 h
Protocol: as §3

[9] = tested on: A2780 human ovarian carcinoma cell line; assay: cell proliferation (CellTiterGlo), single agents and combinations, A2780; type: cell-based; conditions: single agent, 72 hours
Protocol: as §5

[10] = toxicity on the basis of body weight reduction, HCT-116 study with irinotecan; type: in vivo
Protocol: (§6) Balb, Nu/Nu male mice, from Harlan (Italy), were maintained in agreement with the European Communities Council Directive no. 86/609/EEC, in cages with paper filter cover, food and bedding sterilized and acidified water. Fragments of HCT-116 human colon cancer tumors were implanted subcutaneously. The treatment started when tumors were palpable. […] Irinotecan was administered by intravenous route at the dose of 45 mg/kg on days 1, 5, 9. […] Tumor growth was assessed by caliper.

[11] = tested on: HCT-116 human colon cancer tumors; assay: tumor growth delay, HCT-116 xenograft, combination with irinotecan; type: in vivo; conditions: HCT-116 in Balb Nu/Nu male mice, time to reach 1 g
Protocol: as §6

[12] = 20 mg/kg oral on days 2, 4, 6, 8, 10, 12

For `NC(=O)c1cc(-c2ccnc(N)n2)[nH]c1-c1ccc(Cl)cc1Cl` [Compound of formula (I), 5-(2-Amino-pyrimidin-4-yl)-2-(2,4-dichloro-phenyl)-1H-pyrrole-3-carboxylic acid amide], which “T-C” value ([1]; 20 mg/kg oral on days 2, 4, 6, 9, 11, 13) is on record?
Its value is 10 days.

What about the IC50 ([2]; Homo sapiens, MCF7, 72 h, read-out: IC50 (μM) Compound of formula (I), Mcf-7, single agent, Table 1 (gemcitabine experiment)) of the same compound?
The IC50 was 1.1 µM.

And the IC50 ([2]; Homo sapiens, MCF7, 72 h, read-out: IC50 (μM) Compound of formula (I), Mcf-7, single agent, Table 2 (cisplatin experiment))?
The IC50 was 1.7 µM.

What about the IC50 ([2]; Homo sapiens, MCF7, 72 h, read-out: IC50 (μM) Compound of formula (I), Mcf-7, single agent, Table 4 (SN-38 experiment)) of the same compound?
The IC50 was 0.77 µM.

And the IC50 ([2]; Homo sapiens, MCF7, 72 h, read-out: IC50 (μM) Compound of formula (I), Mcf-7, single agent, Table 5 (etoposide experiment))?
The IC50 was 1.11 µM.

And the IC50 ([2]; Homo sapiens, MCF7, 72 h, read-out: IC50 (μM) Compound of formula (I), Mcf-7, single agent, Table 6 (paclitaxel experiment))?
Its IC50 is 0.67 µM.

And the IC50 ([2]; Homo sapiens, MCF7, 72 h, read-out: IC50 (μM) Compound of formula (I), Mcf-7, single agent, Table 7 (erlotinib experiment))?
Its IC50 is 1.87 µM.

And the IC50 ([2]; Homo sapiens, MCF7, 72 h, read-out: IC50 (μM) Compound of formula (I), Mcf-7, single agent, Table 8 (bortezomib experiment))?
Its IC50 is 0.767 µM.

And the “T-C” value [3, 12]?
The value was 13 days.

What about the Toxicity ([4]; po, 20 mg/kg) of the same compound?
Its Toxicity is 0/7.

What about the IC50 ([5]; L-363, 72 h, read-out: IC50 (μM) Compound of formula (I)) of the same compound?
The IC50 was 0.38 µM.

And the IC50 ([6]; HCT-116, 72 h, read-out: IC50 (μM) Compound of formula (I))?
Its IC50 is 0.8 µM.

And the Toxicity ([7]; female, CD-1 Nu/Nu, mouse, in vivo, po, 20 mg/kg)?
Its Toxicity is 0/7.

What about the IC50 ([8]; read-out: IC50 (μM) Compound of formula (I), A375, single agent, Table 11 (dacarbazine, sequential experiment)) of the same compound?
Its IC50 is 1.21 µM.

And the IC50 ([8]; read-out: IC50 (μM) Compound of formula (I), A375, single agent, Table 12 (dacarbazine, simultaneous experiment))?
The IC50 was 0.86 µM.

What about the IC50 ([9]; Homo sapiens, Table 3 (cisplatin experiment), read-out: IC50 (μM) Compound of formula (I)) of the same compound?
The IC50 was 0.52 µM.

What about the Toxicity ([10]; male, Balb Nu/Nu, mouse, in vivo, po, 20 mg/kg) of the same compound?
Its Toxicity is 0/7.

And the “T-C” value [11, 12]?
Its value is 4 days.

Which IC50 ([2]; Homo sapiens, MCF7, Mcf-7, single agent, 72 hours, Table 6, read-out: IC50 (μM) paclitaxel) does the source give for `CC(=O)O[C@H]1C(=O)[C@@]2(C)[C@H]([C@H](OC(=O)c3ccccc3)[C@]3(O)C[C@H](OC(=O)[C@H](O)[C@@H](NC(=O)c4ccccc4)c4ccccc4)C(C)=C1C3(C)C)[C@]1(OC(C)=O)CO[C@@H]1C[C@@H]2O` [paclitaxel] here?
The IC50 was 0.008 µM.

Which IC50 ([8]; A375, single agent, Table 11 (sequential experiment), read-out: IC50 (μM) dacarbazine) does the source give for `CN(C)/N=N/c1[nH]cnc1C(N)=O` [dacarbazine] here?
Its IC50 is 37 µM.

And the IC50 ([8]; A375, single agent, Table 12 (simultaneous experiment), read-out: IC50 (μM) dacarbazine)?
The IC50 was 83 µM.

Which IC50 ([2]; Homo sapiens, MCF7, Mcf-7, single agent, 72 hours, Table 1, read-out: IC50 (μM) Gemcitabine) does the source give for `Nc1ccn([C@@H]2O[C@H](CO)[C@@H](O)C2(F)F)c(=O)n1` [Gemcitabine, gemcitabine] here?
Its IC50 is 0.79 µM.

Which Toxicity ([10]; HCT-116 study, 45 mg/kg intravenous on days 1, 5, 9, body weight reduction) does the source give for `CCc1c2c(nc3ccc(OC(=O)N4CCC(N5CCCCC5)CC4)cc13)-c1cc3c(c(=O)n1C2)COC(=O)[C@]3(O)CC` [irinotecan] here?
The Toxicity was 0/7.

And the “T-C” value ([11]; 45 mg/kg intravenous on days 1, 5, 9)?
The value was 18 days.

Which IC50 ([2]; Mcf-7, single agent, 72 hours, Table 4, read-out: IC50 (μM) SN38) does the source give for `CCc1c2c(nc3ccc(O)cc13)-c1cc3c(c(=O)n1C2)COC(=O)[C@]3(O)CC` [SN38, SN-38] here?
The IC50 was 0.024 µM.

For bevacizumab, which “T-C” value ([3]; 20 mg/kg intravenous on days 1, 5, 9, 13) is on record?
Its value is 13 days.

What about the Toxicity ([7]; MX-1 study, 20 mg/kg intravenous on days 1, 5, 9, 13, body weight reduction) of the same compound?
Its Toxicity is 0/7.

Which results are given for `N.N.[Cl][Pt][Cl]` [cisplatin]?
IC50 ([2]; Mcf-7, single agent, 72 hours, Table 2, read-out: IC50 (μM) cisplatin): 10.2 µM; IC50 ([9]; Table 3, read-out: IC50 (μM) cisplatin): 3 µM

Which results are given for `CC(=O)O[C@@]12CO[C@@H]1C[C@H](O)[C@@]1(C)C(=O)[C@H](O)C3=C(C)[C@@H](OC(=O)[C@H](O)[C@@H](NC(=O)OC(C)(C)C)c4ccccc4)C[C@@](O)([C@@H](OC(=O)c4ccccc4)[C@H]21)C3(C)C` [docetaxel]?
T-C ([1]; 5 mg/kg intravenous on days 1, 8, 15): 9 days; Toxicity ([4]; iv, 5 mg/kg): 0/7

With `CC(C)C[C@H](NC(=O)[C@H](Cc1ccccc1)NC(=O)c1cnccn1)B(O)O` [bortezomib] as the compound, how does the IC50 ([2]; Homo sapiens, MCF7, Mcf-7, single agent, 72 hours, Table 8, read-out: IC50 (μM) bortezomib) read?
Its IC50 is 0.011 µM.

And the IC50 ([6]; HCT-116, HCT116, single agent, 72 hours, Table 9, read-out: IC50 (μM) bortezomib)?
The IC50 was 0.009 µM.

With `C#Cc1cccc(Nc2ncnc3cc(OCCOC)c(OCCOC)cc23)c1` [erlotinib] as the compound, how does the IC50 ([2]; Homo sapiens, MCF7, Mcf-7, single agent, 72 hours, Table 7, read-out: IC50 (μM) erlotinib) read?
Its IC50 is 74.8 µM.

Which IC50 ([2]; Homo sapiens, MCF7, Mcf-7, single agent, 72 hours, Table 5, read-out: IC50 (μM) etoposide) does the source give for `COc1cc([C@@H]2c3cc4c(cc3[C@@H](O[C@@H]3O[C@@H]5CO[C@@H](C)O[C@H]5[C@H](O)[C@H]3O)[C@H]3COC(=O)[C@H]23)OCO4)cc(OC)c1O` [etoposide] here?
Its IC50 is 12.7 µM.

With `CC1(C)CCC(c2ccc(Cl)cc2)=C(CN2CCN(c3ccc(C(=O)NS(=O)(=O)c4ccc(N[C@H](CCN5CCOCC5)CSc5ccccc5)c(S(=O)(=O)C(F)(F)F)c4)cc3)CC2)C1` [ABT-263, Navitoclax] as the compound, how does the IC50 ([5]; L-363, single agent, 72 hours, Table 10, read-out: IC50 (μM) ABT-263) read?
The IC50 was 7.3 µM.
